Source: patent publication US20240327393A1 (SIRONAX LTD., priority 2021, published 2024)
Read-outs that look alike come from different tables or passages of the source.

Tested on: HT-1080 (ATCC, CCL-121) cells
Assay: HT-1080 cell viability assay with ferroptosis inducer RSL3 (Cell Titer-Glo)
Type: cell-based
Conditions: HT-1080 cells treated with RSL3, 3-fold, 10-point dilution, 1.1 μM highest concentration, Table 2, read-out: EC50 (nM), ferroptosis inhibitory activity
Outline: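 HT-1080 cells (6000 per well) were cultured overnight at 37 °C, then co-treated with RSL3 and compound in a 3-fold, 10-point series topping at 1.1 μM. Viability was read by CellTiter-Glo luminescence and normalized to untreated controls. EC50 came from a sigmoidal non-linear regression fit.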

Structure (SMILES) | EC50 (Homo sapiens) | EC50
CC1CN(c2ccc(Nc3ccc4c(c3)OC(C)C(=O)N4)cc2)CC(C)O1 (stereo not drawn) [Compound 139, 7-((4-(2,6-dimethylmorpholino)phenyl)amino)-2-methyl-2H-benzo[b][1,4]oxazin-3(4H)-one] | 0.1 to 100 nM | 
CC1CN(c2ccc(Nc3ccc4c(c3)OCC(=O)N4)cc2)CC(C)O1 (stereo not drawn) [Compound 140, 7-((4-(2,6-dimethylmorpholino)phenyl)amino)-2H-benzo[b][1,4]oxazin-3(4H)-one] | 0.1 to 100 nM | 
Cc1cc(N2CC(C)OC(C)C2)ccc1Nc1cc(F)c2c(c1)OCC(=O)N2C (stereo not drawn) [Compound 141, ((4-(2,6-dimethylmorpholino)-2-methylphenyl)amino)-5-fluoro-4-methyl-2H-benzo[b][1,4]oxazin-3(4H)-one] | 0.1 to 100 nM | 
Cc1cc(Nc2ccc3c(c2)OCC(=O)N3C)cnc1N1CCC(C(F)(F)F)CC1 [Compound 142, 4-methyl-7-((5-methyl-6-(4-(trifluoromethyl)piperidin-1-yl)pyridin-3-yl)amino)-2H-benzo[b][1,4]oxazin-3(4H)-one] | 0.1 to 100 nM | 
Cc1cc(Nc2ccc3c(c2)OCC(=O)N3C)cnc1N1CC(C)OC(C)C1 (stereo not drawn) [Compound 143, 7-((6-(2,6-dimethylmorpholino)-5-methylpyridin-3-yl)amino)-4-methyl-2H-benzo[b][1,4]oxazin-3(4H)-one] | 0.1 to 100 nM | 
CC1CN(c2ccc(Nc3ccc4c(c3)OC(C)C(=O)N4)cc2)CC(C)O1 (stereo not drawn) [Compound 144, 7-((4-(2,6-dimethylmorpholino)phenyl)amino)-2-methyl-2H-benzo[b][1,4]oxazin-3(4H)-one] |  | 0.1 to 100 nM
Cc1cc(Nc2ccc3c(c2)OCC(=O)N3)ccc1N1CC(C)OC(C)C1 (stereo not drawn) [Compound 145, 7-((4-(2,6-dimethylmorpholino)-3-methylphenyl)amino)-2H-benzo[b][1,4]oxazin-3(4H)-one] |  | 0.1 to 100 nM
Cc1cc(Nc2ccc3c(c2)OCC(=O)N3)ccc1N1CC2CCC(C1)O2 [Compound 146, 7-((4-(8-oxa-3-azabicyclo[3.2.1]octan-3-yl)-3-methylphenyl)amino)-2H-benzo[b][1,4]oxazin-3(4H)-one] | 0.1 to 100 nM | 
CCC1CN(c2ccc(Nc3ccc4c(c3)OCC(=O)N4C)c(C)c2)CCO1 (stereo not drawn) [Compound 147, 7-((4-(2-ethylmorpholino)-2-methylphenyl)amino)-4-methyl-2H-benzo[b][1,4]oxazin-3(4H)-one] | 0.1 to 100 nM | 
CC1CN(c2ccc(Nc3ccc4c(c3)OCC(=O)N4)cc2)CCO1 (stereo not drawn) [Compound 148, 7-((4-(2-methylmorpholino)phenyl)amino)-2H-benzo[b][1,4]oxazin-3(4H)-one] | 0.1 to 100 nM | 
CC1CN(c2ccc(Nc3ccc4c(c3)OCC(=O)N4C)cc2)CCO1 (stereo not drawn) [Compound 149, 4-methyl-7-((4-(2-methylmorpholino)phenyl)amino)-2H-benzo[b][1,4]oxazin-3(4H)-one] | 0.1 to 100 nM | 
Cc1cc(Nc2ccc3c(c2)OCC(=O)N3)cnc1N1CCC(C(F)(F)F)CC1 [Compound 150, 7-((5-methyl-6-(4-(trifluoromethyl)piperidin-1-yl)pyridin-3-yl)amino)-2H-benzo[b][1,4]oxazin-3(4H)-one] | 0.1 to 100 nM | 
Cc1cc(Nc2ccc3c(c2)OCC(=O)N3)cnc1N1C[C@@H](C)O[C@@H](C)C1 [Compound 151, 7-((6-(2,6-dimethylmorpholino)-5-methylpyridin-3-yl)amino)-2H-benzo[b][1,4]oxazin-3(4H)-one] | 0.1 to 100 nM | 
CCC1Oc2cc(Nc3ccc(N4CC(C)OC(C)C4)cc3)ccc2NC1=O (stereo not drawn) [Compound 154, 7-((4-(2,6-dimethylmorpholino)phenyl)amino)-2-ethyl-2H-benzo[b][1,4]oxazin-3(4H)-one] | 0.1 to 100 nM | 
Cc1cc(Nc2ccc3c(c2)OCC(=O)N3C)cc(C)c1N1CCC(C(F)(F)F)CC1 [Compound 155, 7-((3,5-dimethyl-4-(4-(trifluoromethyl)piperidin-1-yl)phenyl)amino)-4-methyl-2H-benzo[b][1,4]oxazin-3(4H)-one] | 0.1 to 100 nM | 
CN1C(=O)COc2cc(Nc3ccc(N4CCC(C(F)(F)F)CC4)cc3)c(F)cc21 [Compound 156, 6-fluoro-4-methyl-7-((4-(4-(trifluoromethyl)piperidin-1-yl)phenyl)amino)-2H-benzo[b][1,4]oxazin-3(4H)-one] | 0.1 to 100 nM | 
Cc1cc2c(cc1Nc1ccc(N3CCC(C(F)(F)F)CC3)cc1)OCC(=O)N2C [Compound 157] | 0.1 to 100 nM | 
O=C1CCc2cc(Nc3ccc(N4CCC(C(F)(F)F)CC4)cc3)ccc2N1 [Compound 158, 6-((4-(4-(trifluoromethyl)piperidin-1-yl)phenyl)amino)-3,4-dihydroquinolin-2(1H)-one] | 0.1 to 100 nM | 
CC1CN(c2c(F)cc(Nc3ccc4c(c3)OCC(=O)N4)cc2F)CC(C)O1 (stereo not drawn) [Compound 159, 7-((4-(2,6-dimethylmorpholino)-3,5-difluorophenyl)amino)-2H-benzo[b][1,4]oxazin-3(4H)-one] | 0.1 to 100 nM | 
CN1C(=O)COc2cc(Nc3cc(F)c(N4CCC(O)(C(F)(F)F)CC4)c(F)c3)ccc21 [Compound 160, 7-((3,5-difluoro-4-(4-hydroxy-4-(trifluoromethyl)piperidin-1-yl)phenyl)amino)-4-methyl-2H-benzo[b][1,4]oxazin-3(4H)-one] | 0.1 to 100 nM | 
COC1(C(F)(F)F)CCN(c2c(F)cc(Nc3ccc4c(c3)OCC(=O)N4C)cc2F)CC1 [Compound 161] | 0.1 to 100 nM | 
COC1(C(F)(F)F)CCN(c2ccc(Nc3ccc4c(c3)OCC(=O)N4)cc2)CC1 [Compound 162, 7-((4-(4-methoxy-4-(trifluoromethyl)piperidin-1-yl)phenyl)amino)-2H-benzo[b][1,4]oxazin-3(4H)-one] | 0.1 to 100 nM | 
CN1CCN(CC(=O)N2Cc3ccc(Nc4ccc(N5CCCCC5)cc4)cc3C2)CC1 [Compound 163, 2-(4-methylpiperazin-1-yl)-1-(5-((4-(piperidin-1-yl)phenyl)amino)isoindolin-2-yl)ethan-1-one] | 0.1 to 100 nM | 
CN1CCN(CC(=O)N2Cc3ccc(Nc4ccc(N5CCC(C(F)(F)F)CC5)c(F)c4)cc3C2)CC1 [Compound 164] | 0.1 to 100 nM | 
FC1(F)CCN(c2ccc(Nc3ccc4c(c3)CNC4)cc2)CC1 [Compound 165, N-(4-(4,4-difluoropiperidin-1-yl)phenyl)isoindolin-5-amine] | 0.1 to 100 nM | 
CC(=O)N1Cc2ccc(Nc3ccc(N4CCC(F)(F)CC4)cc3)cc2C1 [Compound 166, 1-(5-((4-(4,4-difluoropiperidin-1-yl)phenyl)amino)isoindolin-2-yl) ethan-1-one] | 0.1 to 100 nM | 
CCN1Cc2ccc(Nc3ccc(N4CCC(F)(F)CC4)cc3)cc2C1 [Compound 167, N-(4-(4,4-difluoropiperidin-1-yl)phenyl)-2-ethylisoindolin-5-amine] | 0.1 to 100 nM | 
CN1Cc2ccc(Nc3ccc(N4CCC(F)(F)CC4)cc3)cc2C1=O [Compound 168, 6-((4-(4,4-difluoropiperidin-1-yl)phenyl)amino)-2-methylisoindolin-1-one] | 0.1 to 100 nM | 
CN1Cc2ccc(Nc3ccc(N4CCC(C(F)(F)F)CC4)c(F)c3)cc2C1=O [Compound 169, 6-((3-fluoro-4-(4-(trifluoromethyl)piperidin-1-yl)phenyl)amino)-2-methylisoindolin-1-one] | 0.1 to 100 nM | 
CC1CCN(c2ccc(Nc3ccc4c(c3)C(=O)N(C)C4)cc2)CC1 [Compound 170, 2-methyl-6-((4-(4-methylpiperidin-1-yl)phenyl)amino)isoindolin-1-one] | 0.1 to 100 nM | 
